Measured values as given in patent US20240316022A1 (TYRA BIOSCIENCES, INC., priority 2021, published 2024).

Experiments:
FGFR1 = molecular target: T1, FGFR1 (Homo sapiens, UniProt P11362); assay: Kinase binding assay (kinase-tagged T7 phage, qPCR), Kd; conditions: read-out: FGFR1 (Kd nM)
T1 construct: made in house; host or cells: E. coli derived from BL21, infected with T7 phage

FGFR2 = molecular target: T2, FGFR2 (Homo sapiens, UniProt P21802); assay: as above; conditions: read-out: FGFR2 (Kd nM)
T2 construct: made in house; host or cells: E. coli derived from BL21, infected with T7 phage

FGFR3 = molecular target: T3, FGFR3 (Homo sapiens, UniProt P22607); assay: as above; conditions: read-out: FGFR3 (Kd nM)
T3 construct: made in house; host or cells: E. coli derived from BL21, infected with T7 phage

FGFR4 = molecular target: T4, FGFR4 (Homo sapiens, UniProt P22455); assay: as above; conditions: read-out: FGFR4 (Kd nM)
T4 construct: made in house; host or cells: E. coli derived from BL21, infected with T7 phage

BCR-FGFR4 Ba/F3 = molecular target: T5, BCR-FGFR4 Ba/F3 (Homo sapiens, UniProt P22455); assay: Ba/F3 cell viability assay (CellTiter-Glo 2.0); assay type: cell-based; conditions: Ba/F3 BCR-FGFR4 cells, 48 hours
T5 construct: host or cells: Ba/F3; the other entry of the earlier key: BCR (P11274, Breakpoint cluster region protein)
Text: (§1) Experimental Purpose: Recombinant kinase fusions are transduced into parental Ba/F3, which becomes dependent upon this constitutive kinase activity for IL3-independent survival. Inhibition of kinase activity leads to cell death, which is monitored using CellTiter-Glo® 2.0 (Promega) which measures intracellular ATP concentration that in turn serves as a marker for viability. BCR-FGFR4 Ba/F3, BCR-FGFR1 Ba/F3 and FGFR3-BAIAP2L1 Ba/F3 were obtained from Advanced Cellular Dynamics (Seattle, WA)
(§2) Cell Viability Assay Procedure: Cell Titer-Glo® 2.0 Luminescent cell viability assay reagent was purchased from Promega (Madison, WI). BCR-FGFR4 Ba/F3, BCR-FGFR1 Ba/F3 and FGFR3-BAIAP2L1 Ba/F3 cells were cultured in RPMI1640 media supplemented with 10% fetal bovine serum. Cultures were maintained at 37° C. in a humidified atmosphere of 5% CO2 and 95% air.
(§3) Cells were plated in 96-well clear bottom/white plates (Corning #3903) at 10,000 cells/well in 100 μl of media, incubated overnight. The next day, test compound DMSO stock solutions were made at 10 mM and 2 μM final concentration. Compounds were then added to cells in a 9-dose, 10-fold dilution series starting at 30 μM with an HP 300e Digital Dispenser (each dose was applied in triplicate). DMSO was backfilled to each well up to 301 nL total volume of test compound+DMSO, and a total of 301 nL DMSO was added to a control/no test compound well in triplicate. The cells in cell culture plates were incubated with the compounds at 37° C. and 5% CO2 for 48 hours. Then 50 μl of Cell Titer Glo 2.0 reagent was added to each well of the cell culture plates. The contents were covered from light and mixed on an orbital shaker at room temperature for 10 min. Luminescence was recorded by a Synergy H1 Microplate Reader (Biotek, Winooski, VT). Cells were assessed as a percentage of DMSO only treated control cells. Curves were plotted and IC50 values were calculated using the GraphPad Prism 8 program based on a sigmoidal dose-response equation (4 parameter).

BCR-FGFR1 Ba/F3 = molecular target: T6, BCR-FGFR1 Ba/F3 (Homo sapiens, UniProt P11362); assay: Ba/F3 cell viability assay (CellTiter-Glo 2.0); assay type: cell-based; conditions: Ba/F3 BCR-FGFR1 cells, 48 hours
T6 construct: host or cells: Ba/F3; the other entry of the earlier key: BCR (P11274, Breakpoint cluster region protein)
Text: as §1, §2, §3

FGFR3-BAIAP2L1 Ba/F3 = molecular target: T7, FGFR3-BAIAP2L1 Ba/F3 (Homo sapiens, UniProt P22607); assay: Ba/F3 cell viability assay (CellTiter-Glo 2.0); assay type: cell-based; conditions: Ba/F3 FGFR3-BAIAP2L1 cells, 48 hours
T7 construct: host or cells: Ba/F3; the other entry of the earlier key: BAIAP2L1 (Q9UHR4, BAR/IMD domain-containing adapter protein 2-like 1)
Text: as §1, §2, §3

T1 sequence (P11362 22-822): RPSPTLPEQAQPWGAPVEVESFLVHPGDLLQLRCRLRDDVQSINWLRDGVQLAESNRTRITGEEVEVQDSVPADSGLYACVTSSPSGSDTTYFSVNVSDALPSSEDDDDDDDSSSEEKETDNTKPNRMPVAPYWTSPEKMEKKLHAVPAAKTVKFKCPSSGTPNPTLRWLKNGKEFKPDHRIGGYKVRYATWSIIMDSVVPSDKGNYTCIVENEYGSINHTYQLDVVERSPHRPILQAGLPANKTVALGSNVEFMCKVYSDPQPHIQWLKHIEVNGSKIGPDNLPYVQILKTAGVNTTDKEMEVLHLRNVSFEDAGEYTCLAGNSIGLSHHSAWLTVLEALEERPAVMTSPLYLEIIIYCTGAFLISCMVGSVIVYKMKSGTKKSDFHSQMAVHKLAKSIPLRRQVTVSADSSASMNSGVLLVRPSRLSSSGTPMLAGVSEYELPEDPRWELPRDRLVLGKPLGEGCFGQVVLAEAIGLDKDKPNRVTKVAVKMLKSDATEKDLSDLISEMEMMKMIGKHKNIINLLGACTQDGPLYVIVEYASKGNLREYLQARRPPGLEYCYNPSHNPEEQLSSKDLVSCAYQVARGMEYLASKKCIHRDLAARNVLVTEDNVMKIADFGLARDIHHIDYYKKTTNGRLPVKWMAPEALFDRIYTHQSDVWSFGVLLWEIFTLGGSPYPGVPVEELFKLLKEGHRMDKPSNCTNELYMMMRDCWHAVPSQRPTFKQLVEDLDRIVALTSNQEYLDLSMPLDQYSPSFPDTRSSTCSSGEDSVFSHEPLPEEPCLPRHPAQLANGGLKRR
T7 sequence (P22607 397-758 limits assumed): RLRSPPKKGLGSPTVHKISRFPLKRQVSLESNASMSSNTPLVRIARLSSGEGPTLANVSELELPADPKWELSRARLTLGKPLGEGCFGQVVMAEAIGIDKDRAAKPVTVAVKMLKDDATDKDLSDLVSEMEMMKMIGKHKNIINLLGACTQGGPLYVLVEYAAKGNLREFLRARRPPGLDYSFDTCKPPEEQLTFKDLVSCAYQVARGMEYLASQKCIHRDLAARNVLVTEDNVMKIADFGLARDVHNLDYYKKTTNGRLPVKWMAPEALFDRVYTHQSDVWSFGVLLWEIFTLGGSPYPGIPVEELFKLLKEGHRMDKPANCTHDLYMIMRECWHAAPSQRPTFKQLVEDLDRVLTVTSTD
T3 sequence (P22607 23-806): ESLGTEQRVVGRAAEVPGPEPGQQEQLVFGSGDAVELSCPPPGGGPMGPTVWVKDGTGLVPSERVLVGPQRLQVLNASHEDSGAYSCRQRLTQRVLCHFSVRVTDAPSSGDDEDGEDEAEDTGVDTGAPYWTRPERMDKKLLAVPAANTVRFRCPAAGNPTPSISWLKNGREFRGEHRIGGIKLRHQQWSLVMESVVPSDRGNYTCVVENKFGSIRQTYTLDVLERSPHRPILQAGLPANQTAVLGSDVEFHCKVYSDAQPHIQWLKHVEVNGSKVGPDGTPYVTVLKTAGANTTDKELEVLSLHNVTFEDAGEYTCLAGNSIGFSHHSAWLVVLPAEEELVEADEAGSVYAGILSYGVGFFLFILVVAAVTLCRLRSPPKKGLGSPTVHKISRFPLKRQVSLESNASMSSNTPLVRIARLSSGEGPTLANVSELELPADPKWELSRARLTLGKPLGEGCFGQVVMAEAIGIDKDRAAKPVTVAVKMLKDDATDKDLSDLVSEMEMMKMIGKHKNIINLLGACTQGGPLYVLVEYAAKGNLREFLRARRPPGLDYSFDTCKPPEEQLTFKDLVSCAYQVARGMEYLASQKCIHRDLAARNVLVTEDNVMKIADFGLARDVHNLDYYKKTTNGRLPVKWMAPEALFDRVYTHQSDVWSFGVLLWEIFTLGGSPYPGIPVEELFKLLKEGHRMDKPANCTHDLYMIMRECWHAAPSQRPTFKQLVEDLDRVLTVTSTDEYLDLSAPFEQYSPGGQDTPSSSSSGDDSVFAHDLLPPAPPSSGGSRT
T2 sequence (P21802 22-821): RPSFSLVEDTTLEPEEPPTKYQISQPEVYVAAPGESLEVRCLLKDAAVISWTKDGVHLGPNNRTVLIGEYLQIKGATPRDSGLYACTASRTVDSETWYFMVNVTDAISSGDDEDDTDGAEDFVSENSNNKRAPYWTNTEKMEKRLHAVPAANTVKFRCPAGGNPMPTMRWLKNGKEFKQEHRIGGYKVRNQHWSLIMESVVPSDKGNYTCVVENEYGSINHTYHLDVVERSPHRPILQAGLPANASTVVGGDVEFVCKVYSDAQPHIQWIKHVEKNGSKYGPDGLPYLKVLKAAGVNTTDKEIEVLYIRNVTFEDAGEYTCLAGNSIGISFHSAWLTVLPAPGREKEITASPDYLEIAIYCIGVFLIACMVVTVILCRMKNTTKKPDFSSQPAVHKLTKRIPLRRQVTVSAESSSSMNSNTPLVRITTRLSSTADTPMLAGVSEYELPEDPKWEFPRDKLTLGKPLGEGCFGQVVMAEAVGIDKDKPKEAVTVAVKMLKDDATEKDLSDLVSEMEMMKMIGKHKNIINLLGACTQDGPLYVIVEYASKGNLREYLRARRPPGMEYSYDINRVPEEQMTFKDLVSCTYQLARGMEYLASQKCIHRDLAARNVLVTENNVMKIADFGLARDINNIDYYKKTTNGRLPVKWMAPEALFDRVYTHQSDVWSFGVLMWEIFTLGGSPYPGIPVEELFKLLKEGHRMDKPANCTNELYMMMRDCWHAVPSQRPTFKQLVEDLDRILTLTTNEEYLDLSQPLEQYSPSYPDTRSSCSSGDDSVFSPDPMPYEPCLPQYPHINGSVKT
T4 sequence (P22455 22-802): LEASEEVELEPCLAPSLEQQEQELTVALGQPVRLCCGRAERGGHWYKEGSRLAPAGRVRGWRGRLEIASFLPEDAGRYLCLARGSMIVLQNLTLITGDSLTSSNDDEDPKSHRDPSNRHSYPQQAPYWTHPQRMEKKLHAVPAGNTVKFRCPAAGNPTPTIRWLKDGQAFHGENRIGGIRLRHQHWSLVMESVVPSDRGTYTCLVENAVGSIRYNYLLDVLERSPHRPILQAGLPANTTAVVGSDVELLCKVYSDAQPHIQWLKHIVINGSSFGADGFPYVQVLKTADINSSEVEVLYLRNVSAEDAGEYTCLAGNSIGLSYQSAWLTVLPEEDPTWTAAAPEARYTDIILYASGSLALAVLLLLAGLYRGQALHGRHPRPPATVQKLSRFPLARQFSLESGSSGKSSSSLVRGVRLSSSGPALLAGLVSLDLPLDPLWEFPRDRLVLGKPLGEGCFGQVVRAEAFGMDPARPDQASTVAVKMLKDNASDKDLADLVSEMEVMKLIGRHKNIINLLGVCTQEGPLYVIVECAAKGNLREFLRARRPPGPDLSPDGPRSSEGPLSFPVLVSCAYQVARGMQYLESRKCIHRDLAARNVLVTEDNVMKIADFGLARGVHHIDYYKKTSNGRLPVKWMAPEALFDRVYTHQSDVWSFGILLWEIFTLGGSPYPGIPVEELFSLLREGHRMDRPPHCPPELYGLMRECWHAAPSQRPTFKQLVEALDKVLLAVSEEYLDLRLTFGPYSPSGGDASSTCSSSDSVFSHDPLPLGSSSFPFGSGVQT
T5 sequence (P22455 467-755 limits assumed): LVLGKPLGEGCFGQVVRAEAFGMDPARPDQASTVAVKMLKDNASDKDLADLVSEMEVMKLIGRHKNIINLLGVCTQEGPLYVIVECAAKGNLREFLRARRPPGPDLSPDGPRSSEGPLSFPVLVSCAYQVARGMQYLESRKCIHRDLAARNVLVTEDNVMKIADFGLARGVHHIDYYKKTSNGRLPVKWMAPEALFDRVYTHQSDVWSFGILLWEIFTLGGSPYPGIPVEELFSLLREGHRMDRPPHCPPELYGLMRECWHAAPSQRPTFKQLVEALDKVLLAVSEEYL
T6 sequence (P11362 478-767 limits assumed): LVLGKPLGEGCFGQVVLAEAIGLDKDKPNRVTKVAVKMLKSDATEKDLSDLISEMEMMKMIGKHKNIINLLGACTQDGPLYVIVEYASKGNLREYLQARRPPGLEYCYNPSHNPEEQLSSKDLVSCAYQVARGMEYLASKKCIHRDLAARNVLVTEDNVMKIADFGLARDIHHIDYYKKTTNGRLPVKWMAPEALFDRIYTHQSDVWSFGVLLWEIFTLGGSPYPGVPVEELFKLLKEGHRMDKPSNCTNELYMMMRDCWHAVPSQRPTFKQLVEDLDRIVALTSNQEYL

| Kd (FGFR1) | Kd (FGFR2) | Kd (FGFR3) | Kd (FGFR4) | Structure (SMILES) | IC50 (BCR-FGFR4 Ba/F3) | IC50 (BCR-FGFR1 Ba/F3) | IC50 (FGFR3-BAIAP2L1 Ba/F3) |
| --- | --- | --- | --- | --- | --- | --- | --- |
| 0.1 to 100 nM | 0.1 to 100 nM | 0.1 to 100 nM | 0.1 to 100 nM | C[C@@H](Oc1ccc2[nH]nc(-c3cnc4c(c3)NCCO4)c2c1)c1c(Cl)cncc1Cl [Example 17, 7-[5-[(1R)-1-(3,5-dichloro-4-pyridyl)ethoxy]-1H-indazol-3-yl]-2,3-dihydro-1H-pyrido[2,3-b][1,4]oxazine] | 250 to 1000 nM |  |  |
| 100 to 250 nM | 100 to 250 nM | 0.1 to 100 nM | 0.1 to 100 nM | C[C@@H](Oc1ccc2[nH]nc(-c3cnc4c(c3)N(C(=O)c3ccccn3)CCO4)c2c1)c1c(Cl)cncc1Cl [Example 20, [7-[5-[(1R)-1-(3,5-dichloro-4-pyridyl)ethoxy]-1H-indazol-3-yl]-2,3-dihydropyrido[2,3-b][1,4]oxazin-1-yl]-(2-pyridyl)methanone] | 250 to 1000 nM |  |  |
| > 1000 nM | > 1000 nM | > 1000 nM | 0.1 to 100 nM | C=CC(=O)N1CCOc2ncc(-c3n[nH]c4ccc(O[C@H](C)c5c(Cl)cncc5Cl)cc34)cc21 [Example 25, 1-[7-[5-[(1R)-1-(3,5-dichloro-4-pyridyl)ethoxy]-1H-indazol-3-yl]-2,3-dihydro-pyrido[2,3-b][1,4]oxazin-1-yl]prop-2-en-1-one] | 0.1 to 100 nM | > 1000 nM | 250 to 1000 nM |
| > 1000 nM | > 1000 nM | 250 to 1000 nM | 0.1 to 100 nM | C[C@@H](Oc1ccc2[nH]nc(-c3cnc4c(c3)N(C(=O)CCN(C)C)CCO4)c2c1)c1c(Cl)cncc1Cl [Example 26, 1-[7-[5-[(1R)-1-(3,5-dichloro-4-pyridyl)ethoxy]-1H-indazol-3-yl]-2,3-dihydropyrido[2,3-b][1,4]oxazin-1-yl]-3-(dimethyl-amino)propan-1-one] | 0.1 to 100 nM |  |  |
| 250 to 1000 nM | > 1000 nM | 250 to 1000 nM | 0.1 to 100 nM | C[C@@H](Oc1ccc2[nH]nc(-c3cnc(N)c(OC(F)F)c3)c2c1)c1c(Cl)cncc1Cl [Example 28, 5-[5-[(1R)-1-(3,5-dichloro-4-pyridyl)ethoxy]-1H-indazol-3-yl]-3-(difluoromethoxy)pyridin-2-amine] | 250 to 1000 nM | > 1000 nM | 250 to 1000 nM |
| 0.1 to 100 nM | > 1000 nM | 0.1 to 100 nM | 0.1 to 100 nM | C[C@@H](Oc1ccc2[nH]nc(-c3cnc(N)c(C#N)c3)c2c1)c1c(Cl)cncc1Cl [Example 30, 2-amino-5-[5-[(1R)-1-(3,5-dichloro-4-pyridyl)ethoxy]-1H-indazol-3-yl]pyridine-3-carbonitrile] | 250 to 1000 nM |  |  |
| 250 to 1000 nM | 250 to 1000 nM | 0.1 to 100 nM | 0.1 to 100 nM | COc1cc(-c2n[nH]c3ccc(O[C@H](C)c4c(Cl)cncc4Cl)cc23)cnc1N [Example 34, 5-[5-[(1R)-1-(3,5-dichloro-4-pyridyl)ethoxy]-1H-indazol-3-yl]-3-methoxy-pyridin-2-amine] | 250 to 1000 nM |  |  |
| 250 to 1000 nM | 250 to 1000 nM | 0.1 to 100 nM | 0.1 to 100 nM | Cc1nccc(C(=O)N2CCOc3ncc(-c4n[nH]c5ccc(O[C@H](C)c6c(Cl)cncc6Cl)cc45)cc32)n1 [Example 40, [7-[5-[(1R)-1-(3,5-dichloro-4-pyridyl)ethoxy]-1H-indazol-3-yl]-2,3-dihydro-pyrido[2,3-b][1,4]oxazin-1-yl]-(2-methyl-pyrimidin-4-yl)methanone] | 250 to 1000 nM |  |  |
| 0.1 to 100 nM | 100 to 250 nM | 0.1 to 100 nM | 0.1 to 100 nM | Cc1ccc(C(=O)N2CCOc3ncc(-c4n[nH]c5ccc(O[C@H](C)c6c(Cl)cncc6Cl)cc45)cc32)cn1 [Example 41] | 250 to 1000 nM |  |  |
| > 1000 nM | > 1000 nM | 100 to 250 nM | 0.1 to 100 nM | Cc1ncccc1C(=O)N1CCOc2ncc(-c3n[nH]c4ccc(O[C@H](C)c5c(Cl)cncc5Cl)cc34)cc21 [Example 42, [7-[5-[(1R)-1-(3,5-dichloro-4-pyridyl)ethoxy]-1H-indazol-3-yl]-2,3-dihydro-pyrido[2,3-b][1,4]oxazin-1-yl]-(2-methyl-3-pyridyl)methanone] | > 1000 nM |  |  |
| 250 to 1000 nM | > 1000 nM | 0.1 to 100 nM | 0.1 to 100 nM | COc1cc(NC(=O)c2ccccn2)cc(-c2n[nH]c3ccc(O[C@H](C)c4c(Cl)cncc4Cl)cc23)c1 [Example 45, N-[3-[5-[(1R)-1-(3,5-dichloro-4-pyridyl)ethoxy]-1H-indazol-3-yl]-5-methoxy-phenyl]pyridine-2-carboxamide] | 250 to 1000 nM |  |  |
| > 1000 nM | > 1000 nM | 250 to 1000 nM | 100 to 250 nM | C[C@@H](Oc1ccc2[nH]nc(-c3cnc4c(c3)N(CCO)CCO4)c2c1)c1c(Cl)cncc1Cl [Example 49, 2-[7-[5-[(1R)-1-(3,5-dichloro-4-pyridyl)ethoxy]-1H-indazol-3-yl]-2,3-dihydro-pyrido[2,3-b][1,4]oxazin-1-yl]ethanol] | 250 to 1000 nM |  |  |
| 250 to 1000 nM | 0.1 to 100 nM | 0.1 to 100 nM | 0.1 to 100 nM | COc1cc(C#N)cc(-c2n[nH]c3ccc(O[C@H](C)c4c(C)cnnc4C)cc23)c1 [Example 53, 3-[5-[(1R)-1-(3,5-dimethylpyridazin-4-yl)ethoxy]-1H-indazol-3-yl]-5-methoxy-benzonitrile] | 250 to 1000 nM |  |  |
| 0.1 to 100 nM | 0.1 to 100 nM | 0.1 to 100 nM | 0.1 to 100 nM | Cc1cnnc(C)c1[C@@H](C)Oc1ccc2[nH]nc(-c3cc(C#N)cc(OCCO)c3)c2c1 [Example 72, 3-[5-[(1R)-1-(3,5-dimethylpyridazin-4-yl)ethoxy]-1H-indazol-3-yl]-5-(2-hydroxyethoxy)benzonitrile] | 100 to 250 nM | 250 to 1000 nM | 0.1 to 100 nM |
| 250 to 1000 nM | 0.1 to 100 nM | 0.1 to 100 nM | 0.1 to 100 nM | Cc1cc(-c2n[nH]c3ccc(O[C@H](C)c4c(Cl)cnc(C)c4Cl)cc23)cnc1N[C@@H]1CCOC1 [Example 164, 5-[5-[(1R)-1-(3,5-dichloro-2-methyl-4-pyridyl)ethoxy]-1H-indazol-3-yl]-3-methyl-N-[(3R)-tetrahydrofuran-3-yl]pyridin-2-amine] |  | > 1000 nM | 0.1 to 100 nM |
| 0.1 to 100 nM | 0.1 to 100 nM | 0.1 to 100 nM | 0.1 to 100 nM | C[C@@H](Oc1ccc2[nH]nc(-c3ccc4c(c3)COC3(CCN(S(C)(=O)=O)CC3)O4)c2c1)c1c(Cl)cncc1Cl [Example 165, 6-[5-[(1R)-1-(3,5-dichloro-4-pyridyl)ethoxy]-1H-indazol-3-yl]-1′-methylsulfonyl-spiro[4H-1,3-benzodioxine-2,4′-piperidine]] |  | 250 to 1000 nM | 0.1 to 100 nM |
| 100 to 250 nM | 100 to 250 nM | 0.1 to 100 nM | 0.1 to 100 nM | Cc1ncc(Cl)c([C@@H](C)Oc2ccc3[nH]nc(-c4ccc5c(c4)COC4(CCN(CC(F)F)CC4)O5)c3c2)c1Cl [Example 166, (R)-6-(5-(1-(3,5-Dichloro-2-methylpyridin-4-yl)ethoxy)-1H-indazol-3-yl)-1′-(2,2-difluoroethyl)-4H-spiro[benzo[d][1,3]dioxine-2,4′-piperidine]] |  | > 1000 nM | 100 to 250 nM |
| 100 to 250 nM | 100 to 250 nM | 0.1 to 100 nM | 0.1 to 100 nM | C[C@@H](Oc1ccc2[nH]nc(-c3ccc4c(c3)COC3(CCN(CC(F)(F)F)CC3)O4)c2c1)c1c(Cl)cncc1Cl [Example 169, 6-[5-[(1R)-1-(3,5-dichloro-4-pyridyl)ethoxy]-1H-indazol-3-yl]-1′-(2,2,2-trifluoroethyl)spiro[4H-1,3-benzodioxine-2,4′-piperidine]] |  | > 1000 nM | 0.1 to 100 nM |
